# What was measured:
# [1] = Ratio of potentiation of AZT without serum to with serum; type: functional
# Pseudomonas aeruginosa [2] = assay: Minimum Potentiation Concentration of EPI required to achieve an 8-fold reduction in antibiotic MIC of AZT against MexAB-OprM pump system in Pseudomonas aeruginosa with 10% horse serum; type: functional
# Pseudomonas aeruginosa [3] = assay: Minimum Potentiation Concentration of EPI required to achieve an 8-fold reduction in antibiotic MIC of AZT against MexAB-OprM pump system in Pseudomonas aeruginosa without horse serum; type: functional
# Pseudomonas aeruginosa [4] = assay: Minimum Potentiation Concentration of EPI required to achieve an 8-fold reduction in antibiotic MIC of levofloxacin against MexABOprMover-expressing strain of Pseudomonas aeruginosa; type: functional
# Pseudomonas aeruginosa [5] = assay: In vivo percent survival on day 7th after administration at the dose of 50 mg/kg along LVFX (7.5 mg/kg) in Pseudomonas aeruginosa PAM1723; type: functional
# Mus musculus [6] = assay: In vivo number of survivors on day 7 after administration at the dose of 50 mg/kg along LVFX (15 mg/kg) in mice (Pseudomonas aeruginosa PAM1723); type: functional
# Mus musculus [7] = assay: In vivo number of survivors on day 0 after administration at the dose of 50 mg/kg along LVFX (7.5 mg/kg) along with in mice (Pseudomonas aeruginosa PAM1723); type: functional
# Mus musculus [8] = assay: In vivo number of survivors on day 4 after administration at the dose of 50 mg/kg along LVFX (7.5 mg/kg) in mice (Pseudomonas aeruginosa PAM1723); type: functional
# Mus musculus [9] = assay: In vivo number of survivors on day 0 after administration at the dose of 50 mg/kg along LVFX (15 mg/kg) in mice (Pseudomonas aeruginosa PAM1723); type: functional
# Mus musculus [10] = assay: In vivo number of survivors on day 4 after administration at the dose of 50 mg/kg along LVFX (15 mg/kg) in mice (Pseudomonas aeruginosa PAM1723); type: functional
# Mus musculus [11] = assay: In vivo number of survivors on day 1after administration at the dose of 50 mg/kg along LVFX (7.5 mg/kg) in mice (Pseudomonas aeruginosa PAM1723); type: functional
# Mus musculus [12] = assay: In vivo number of survivors on day 1after administration at the dose of 50 mg/kg along LVFX (15 mg/kg) in mice (Pseudomonas aeruginosa PAM1723); type: functional
# Mus musculus [13] = assay: In vivo number of survivors on day 7 after administration at the dose of 50 mg/kg along LVFX(7.5 mg/kg) in mice (Pseudomonas aeruginosa PAM1723); type: functional
# Albumin = Albumin (Homo sapiens, UniProt P02768); assay: Protein binding affinity for human serum albumin was measured
# Pseudomonas aeruginosa [14] = assay: In vivo percent survival on day 7th after administration at the dose of 50 mg/kg along LVFX (15 mg/kg) in Pseudomonas aeruginosa PAM1723; type: functional
# Mus musculus [15] = assay: In vivo number of survivors on day 0 after administration at the dose of 50 mg/kg along LVFX (7.5 mg/kg) in mice (Pseudomonas aeruginosa PAM1723); type: functional
# Mus musculus [16] = assay: In vivo number of survivors on day 7 after administration at the dose of 50 mg/kg along LVFX (7.5 mg/kg) in mice (Pseudomonas aeruginosa PAM1723); type: functional
# Mus musculus [17] = assay: In vivo number of survivors on day 4 after administration (15 mg/kg) in mice Pseudomonas aeruginosa PAM1723); type: functional
# Mus musculus [18] = assay: In vivo number of survivors on day 0 after administration (7.5 mg/kg) in mice(Pseudomonas aeruginosa PAM1723); type: functional
# Mus musculus [19] = assay: In vivo number of survivors on day 4 after administration (7.5 mg/kg) in mice(Pseudomonas aeruginosa PAM1723); type: functional
# Mus musculus [20] = assay: In vivo number of survivors on day 0 after administration (30 mg/kg) in mice(Pseudomonas aeruginosa PAM1723); type: functional
# Mus musculus [21] = assay: In vivo percent survival on day 7th after administration (15 mg/kg) in mice(Pseudomonas aeruginosa PAM1723); type: functional
# Mus musculus [22] = assay: In vivo number of survivors on day 7 after administration (15 mg/kg) in mice(Pseudomonas aeruginosa PAM1723); type: functional
# Mus musculus [23] = assay: In vivo number of survivors on day 4 after administration (30 mg/kg) in mice(Pseudomonas aeruginosa PAM1723); type: functional
# Mus musculus [24] = assay: In vivo number of survivors on day 1 after administration (30 mg/kg) in mice(Pseudomonas aeruginosa PAM1723); type: functional
# Mus musculus [25] = assay: In vivo percent survival on day 7th after administration (7.5 mg/kg) in mice(Pseudomonas aeruginosa PAM1723); type: functional
# Mus musculus [26] = assay: In vivo number of survivors on day 0 after administration (15 mg/kg) in mice(Pseudomonas aeruginosa PAM1723); type: functional
# Mus musculus [27] = assay: In vivo number of survivors on day 1 after administration (7.5 mg/kg) in mice(Pseudomonas aeruginosa PAM1723); type: functional
# Mus musculus [28] = assay: In vivo number of survivors on day 7 after administration (7.5 mg/kg) in mice(Pseudomonas aeruginosa PAM1723); type: functional
# Mus musculus [29] = assay: In vivo number of survivors on day 7 after administration (30 mg/kg) in mice(Pseudomonas aeruginosa PAM1723); type: functional
# Mus musculus [30] = assay: In vivo number of survivors on day 1 after administration (15 mg/kg) in mice(Pseudomonas aeruginosa PAM1723); type: functional
# Mus musculus [31] = assay: In vivo percent survival on day 7th after administration (30 mg/kg) in mice(Pseudomonas aeruginosa PAM1723); type: functional
# Pseudomonas aeruginosa [32] = assay: Minimum concentration ([…]) of inhibitor required to reduce (potentiate) the activity of antibacterial drug-LVFX for Pseudomonas aeruginosa PAM1723 by n-fold; type: functional
# Chain of Albumin (P02768 whole entry): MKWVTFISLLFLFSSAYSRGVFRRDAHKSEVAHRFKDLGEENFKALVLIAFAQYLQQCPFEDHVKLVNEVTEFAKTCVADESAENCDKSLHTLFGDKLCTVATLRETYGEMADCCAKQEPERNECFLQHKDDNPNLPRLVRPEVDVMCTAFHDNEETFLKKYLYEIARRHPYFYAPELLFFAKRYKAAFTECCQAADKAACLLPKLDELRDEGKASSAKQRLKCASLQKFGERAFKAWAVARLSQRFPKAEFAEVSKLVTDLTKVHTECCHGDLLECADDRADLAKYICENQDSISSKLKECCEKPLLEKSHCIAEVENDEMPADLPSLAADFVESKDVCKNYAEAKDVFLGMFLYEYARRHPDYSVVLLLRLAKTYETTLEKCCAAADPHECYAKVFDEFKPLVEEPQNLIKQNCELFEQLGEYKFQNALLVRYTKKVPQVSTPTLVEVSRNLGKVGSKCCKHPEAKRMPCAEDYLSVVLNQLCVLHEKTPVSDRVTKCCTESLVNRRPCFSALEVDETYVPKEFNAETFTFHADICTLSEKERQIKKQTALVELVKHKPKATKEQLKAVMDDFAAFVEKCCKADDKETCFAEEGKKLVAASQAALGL
Compound,Ratio [1],MPC8 (Pseudomonas aeruginosa [2]),MPC8 (Pseudomonas aeruginosa [3]),MPC8 (Pseudomonas aeruginosa [4]),Binding (Albumin),Kd (Albumin),further results
CC(C)c1csc(/C=C/c2ccn3c(=O)c(C(=O)O)cnc3c2)n1,0.5,40 µg/mL,80 µg/mL,>320 µg/mL,–,–,–
CC(C)c1csc(CCc2ccn3c(=O)c(C(=O)O)cnc3c2)n1,–,>40 µg/mL,>40 µg/mL,–,–,–,–
CC(C)c1csc(/C=C/c2ccn3c(=O)c(-c4nnn[nH]4)cnc3c2)n1,1,2.5 µg/mL,2.5 µg/mL,1.25 µg/mL,90.8%,22 µM,survival at 50 mg/kg (Pseudomonas aeruginosa [5]): 10%; No. of survivors (Mus musculus [6]): 7; No. of survivors (Mus musculus [7]): 10; No. of survivors (Mus musculus [8]): 1; No. of survivors (Mus musculus [9]): 10; No. of survivors (Mus musculus [10]): 7; No. of survivors (Mus musculus [11]): 1; No. of survivors (Mus musculus [12]): 10; No. of survivors (Mus musculus [13]): 1; survival at 50 mg/kg (Pseudomonas aeruginosa [14]): 70%
CC(C)c1csc(/C=C/c2cccc(NC(=O)Cc3ccccc3C(=O)O)c2)n1,> 16,10 µg/mL,<=0.63 ug ml-1,>60 µg/mL,> 99.9%,0.28 µM,–
CC(C)c1csc(COc2cc3c(cc2F)c(=O)c(C(=O)O)cn3C2CC2)n1,1,10 µg/mL,10 µg/mL,320 µg/mL,90.5%,–,–
CC(C)c1csc(COc2ccn3c(=O)c(-c4nnn[nH]4)cnc3c2)n1,1,5 µg/mL,5 µg/mL,10 µg/mL,88.4%,66.4 µM,survival at 50 mg/kg (Pseudomonas aeruginosa [5]): 40%; No. of survivors (Mus musculus [15]): 10; No. of survivors (Mus musculus [8]): 4; No. of survivors (Mus musculus [9]): 10; No. of survivors (Mus musculus [16]): 4; No. of survivors (Mus musculus [11]): 4; survival at 50 mg/kg (Pseudomonas aeruginosa [14]): 100%
CCn1cc(C(=O)O)c(=O)c2ccc(/C=C/c3nc(C(C)C)cs3)cc21,1,10 µg/mL,10 µg/mL,>160 µg/mL,–,–,–
CCn1cc(-c2nnn[nH]2)c(=O)c2ccc(/C=C/c3nc(C(C)C)cs3)cc21,4,20 µg/mL,5 µg/mL,1.25 µg/mL,–,–,–
CC(C)c1csc(COc2ccn3c(=O)c(C(=O)O)cnc3c2)n1,2,80 µg/mL,40 µg/mL,320 µg/mL,–,–,–
C[C@H]1COc2c(N3CCN(C)CC3)c(F)cc3c(=O)c(C(=O)O)cn1c23.C[C@H]1COc2c(N3CCN(C)CC3)c(F)cc3c(=O)c(C(=O)O)cn1c23.O [LEVOFLOXACIN],–,–,–,–,–,–,No. of survivors (Mus musculus [17]): 1; No. of survivors (Mus musculus [18]): 10; No. of survivors (Mus musculus [19]): 0; No. of survivors (Mus musculus [20]): 10; Survival (Mus musculus [21]): 10%; No. of survivors (Mus musculus [22]): 1; No. of survivors (Mus musculus [23]): 7; No. of survivors (Mus musculus [24]): 9; Survival (Mus musculus [25]): 0%; No. of survivors (Mus musculus [26]): 10; No. of survivors (Mus musculus [27]): 0; No. of survivors (Mus musculus [28]): 0; No. of survivors (Mus musculus [29]): 7; No. of survivors (Mus musculus [30]): 1; Survival (Mus musculus [31]): 70%
CC(C)c1csc(CCc2ccn3c(=O)c(-c4nnn[nH]4)cnc3c2)n1,1,10 µg/mL,10 µg/mL,–,81.5%,327 µM,MPC8 (Pseudomonas aeruginosa [32]): >80 µg/mL
